Test results as given in patent US20240271099A1, “METHOD FOR GENERATING HIGHLY FUNCTIONAL HEPATOCYTES BY DIFFERENTIATING HEPATOBLASTS” (INSTITUT NATIONAL DE LA SANTÉ ET DE LA RECHERCHE MÉDICALE, priority 2021, published 2024).

Test system: Glucose-6-Phosphatase activity
Assay: Glycogenolysis (glucose release after glucagon)
Format: cell-based, human
Conditions: 3D spheroids, 10 nmol/L glucagon, 3 h
Protocol: Glycogen Glucose metabolism. iHeps in 2D and 3D culture were investigated to assess the glycogen storage and glucose homeostasis regulation. Briefly, at specific time points along the 2D and 3D cultures, cells were treated for 3 h with a homemade low-glucose medium with or without 10 nmol/L glucagon (Sigma-Aldrich) to induce glucose release from the glycogen storage. Media samples were then collected and glucose concentration was determined using the High Sensitivity Glucose Assay Kit (Sigma). Periodic acid-Schiff (PAS) staining was then carried out on 2D and 8 μm cryosections of the very same samples. Specimens were fixed for 10 minutes at room temperature with 4% formol then treated with 1% periodic acid solution (Sigma-Aldrich) for 10 minutes. After washing, slides were immersed in Schiff's reagent (Fisher Scientific) for 30 minutes at RT. Before counterstaining with Mayer's Hematoxylin (Sigma), samples were washed carefully with Scott's tap water.
To investigate further, 3D specimens (iHeps and PHHs) were incubated for 4 h with 25 mM D-Glucose and 100 nM insulin to mimic hyperglycemia. Glycogen synthesis and storage were then determined using the Periodic Acid-Schiff (PAS) Staining Kit (Sigma-Aldrich) as described above. […] The media were then collected, and glucose levels determined using the High Sensitivity Glucose Assay Kit (Sigma).

For glucagon, the “glycogenolysis, times higher than basal release (w/o glucagon)” value was 3 times.
